Results from patent US8592456B2 (4SC Discovery GmbH, priority 2011, dated 2013).
Like-named read-outs stand apart in the source and are kept apart here.

Tested on: PBMC (T cell proliferation)
Assay: T cell proliferation assay, PHA-stimulated human PBMC (BrdU ELISA)
Format: cell-based
Conditions: 48 hours, BrdU
Outline: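 Healthy-donor human PBMC, Ficoll-isolated, seeded 1×10^5 cells/well in RPMI1640 with 10% dialyzed FCS, stimulated with 2 μg/ml PHA alongside test compound. Proliferation read after 48 hours by BrdU ELISA.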

[1] = PHA-stimulated human PBMC, column D, activity classes 1-4, read-out: IC50 (Tcell proliferation)
[2] = human PBMC, 2 μg/ml PHA, read-out: D: IC50 (Tcell proliferation)

Row | Structure (SMILES) | IC50 [1] | IC50 [2]
1 | Fc1cccc(Cl)c1-c1noc(-c2cnn(-c3cccc(Cl)c3)c2C(F)(F)F)c1-c1nnco1 [IB-5, 2-(3-(2-chloro-6-fluorophenyl)-5-(1-(3-chlorophenyl)-5-(trifluoromethyl)-1H-pyrazol-4-yl)isoxazol-4-yl)-1,3,4-oxadiazole] | < 10 nM | –
2 | CNC(=O)c1c(-c2c(F)cccc2Cl)noc1-c1cnn(-c2cccc(F)c2)c1C(F)(F)F [Example 62, 3-(2-chloro-6-fluorophenyl)-5-(1-(3-fluorophenyl)-5-(trifluoromethyl)-1H-pyrazol-4-yl)-N-methylisoxazole-4-carboxamide] | – | 10 to 100 nM
3 | CCOC(=O)c1c(-c2onc(-c3c(F)cccc3Cl)c2C(=O)OC)cnn1-c1cccc(Cl)c1Cl [Example 9, methyl 3-(2-chloro-6-fluorophenyl)-5-(1-(2,3-dichlorophenyl)-5-(ethoxycarbonyl)-1H-pyrazol-4-yl)isoxazole-4-carboxylate] | – | 1000 to 10000 nM
4 | CCOC(=O)c1c(-c2ccncc2F)noc1-c1cnn(-c2ccccn2)c1C(F)(F)F [Example B-8, ethyl 3-(3-fluoropyridin-4-yl)-5-(1-(pyridin-2-yl)-5-(trifluoromethyl)-1H-pyrazol-4-yl)isoxazole-4-carboxylate] | – | 1000 to 10000 nM
5 | Cc1nnc(-c2c(-c3c(F)cccc3Cl)noc2-c2cnn(-c3cccc(S(N)(=O)=O)c3)c2C(F)(F)F)s1 [IB-23, 3-(4-(3-(2-chloro-6-fluorophenyl)-4-(5-methyl-1,3,4-thiadiazol-2-yl)isoxazol-5-yl)-5-(trifluoromethyl)-1H-pyrazol-1-yl)benzenesulfonamide] | 1000 to 10000 nM | –
6 | CC(C)OC(=O)c1c(-c2c(F)cccc2Cl)noc1-c1cnn(-c2ccccc2Cl)c1C(F)(F)F [Example B-60] | – | 1000 to 10000 nM
7 | CCOC(=O)c1c(-c2ccccc2Cl)noc1-c1cnn(-c2cccc(Cl)c2)c1C(F)(F)F [Example B-41, ethyl 3-(2-chlorophenyl)-5-(1-(3-chlorophenyl)-5-(trifluoromethyl)-1H-pyrazol-4-yl)-isoxazole-4-carboxylate] | – | 10 to 100 nM
8 | COC(=O)c1c(-c2c(F)cccc2Cl)noc1-c1cnn(-c2ncc(C(F)(F)F)cc2Cl)c1C(F)(F)F [Example 87] | – | 1000 to 10000 nM
9 | COC(=O)c1c(-c2c(F)cccc2Cl)noc1-c1cnn(-c2cccc(N)c2)c1C(F)(F)F [Example B-92, methyl 5-(1-(3-aminophenyl)-5-trifluoromethyl)-1H-pyrazol-4-yl)-3-(2-chloro-6-fluorophenyl)isoxazole-4-carboxylate] | – | 10 to 100 nM
10 | Fc1ccccc1-n1ncc(-c2onc(-c3c(F)cccc3Cl)c2-c2cnco2)c1C(F)(F)F [IB-28, 3-(2-chloro-6-fluorophenyl)-5-(1-(2-fluorophenyl)-5-(trifluoromethyl)-1H-pyrazol-4-yl)-4-(oxazol-5-yl)isoxazole] | 100 to 1000 nM | –
11 | CC(C)OC(=O)c1c(-c2c(F)cccc2Cl)noc1-c1cnn(-c2cccnc2)c1C(F)(F)F [Example B-61, isopropyl 3-(2-chloro-6-fluorophenyl)-5-(1-(pyridin-3-yl)-5-(trifluoromethyl)-1H-pyrazol-4-yl)isoxazole-4-carboxylate] | – | 10 to 100 nM
12 | Cc1nnc(-c2c(-c3c(F)cccc3Cl)noc2-c2cnn(-c3cccnc3)c2C(F)(F)F)s1 [IB-21, 3-(2-chloro-6-fluorophenyl)-4-(5-methyl-1,3,4-thiadiazol-2-yl)-5-(1-(pyridin-3-yl)-5-(trifluoromethyl)-1H-pyrazol-4-yl)isoxazole] | 10 to 100 nM | –
13 | CCOC(=O)c1c(-c2c(F)cccc2Cl)noc1-c1cnn(CC2CCOCC2)c1C(F)(F)F [Example B-81, ethyl 3-(2-chloro-6-fluorophenyl)-5-(1-((tetrahydro-2H-pyran-4-yl)methyl)-5-(trifluoromethyl)-1H-pyrazol-4-yl)isoxazole-4-carboxylate] | – | 100 to 1000 nM
14 | COC(=O)c1c(-c2c(F)cccc2Cl)noc1-c1cnn(-c2c(F)c(F)cc(F)c2F)c1C(F)(F)F [Example 47, methyl 3-(2-chloro-6-fluorophenyl)-5-(1-(2,3,5,6-tetrafluorophenyl)-5-(trifluoromethyl)-1H-pyrazol-4-yl)isoxale-4-carboxylate] | – | 100 to 1000 nM
15 | CNC(=S)c1c(-c2c(F)cccc2Cl)noc1-c1cnn(-c2cccc(Cl)c2)c1C(F)(F)F [Example 72, 3-(2-chloro-6-fluorophenyl)-5-(1-(3-chlorophenyl)-5-(trifluoromethyl)-1H-pyrazol-4-yl)-N-methylisoxazole-4-carbothioamide] | – | 100 to 1000 nM
16 | Fc1ccccc1-n1ncc(-c2onc(-c3c(F)cccc3Cl)c2-c2nccs2)c1C(F)(F)F [IB-30, 3-(2-chloro-6-fluorophenyl)-5-(1-(2-fluorophenyl)-5-(trifluoromethyl)-1H-pyrazol-4-yl)-4-(thiazol-2-yl)isoxazole] | 10 to 100 nM | –

Row | Structure (SMILES) | IC50 [1] | IC50 [2]
17 | Fc1cccc(-n2ncc(-c3onc(-c4c(F)cccc4Cl)c3-c3nnco3)c2C(F)(F)F)c1 [Example I-7, 2-(3-(2-chloro-6-fluorophenyl)-5-(1-(3-fluorophenyl)-5-(trifluoromethyl)-1H-pyrazol-4-yl)isoxazol-4-yl)-1,3,4-oxadiazole] | 10 to 100 nM | –
18 | CC(C)Cn1ncc(-c2onc(-c3c(F)cccc3Cl)c2-c2nnn[nH]2)c1C(F)(F)F [Example I-1, 3-(2-chloro-6-fluorophenyl)-5-(1-isobutyl-5-(trifluoromethyl)-1H-pyrazol-4-yl)-4-(1H-tetrazol-5-yl)isoxazole] | 1000 to 10000 nM | –
19 | O=C(c1c(-c2ccccc2Cl)noc1-c1cnn(-c2cccc(Cl)c2)c1C(F)(F)F)N1CCCO1 [Example B-62, (3-(2-chlorophenyl)-5-(1-(3-chlorophenyl)-5-(trifluoromethyl)-1H-pyrazol-4-yl)isoxazol-4-yl)(isoxazolidin-2-yl)methanone] | – | 10 to 100 nM
20 | Fc1cccc(Cl)c1-c1noc(-c2cnn(-c3ccncc3)c2C(F)(F)F)c1-c1cnco1 [IB-33, 3-(2-chloro-6-fluorophenyl)-4-(oxazol-5-yl)-5-(1-(pyridin-4-yl)-5-(trifluoromethyl)-1H-pyrazol-4-yl)isoxazole] | 1000 to 10000 nM | –
21 | Cc1nnc(-c2c(-c3c(F)cccc3Cl)noc2-c2cnn(-c3ccccc3Cl)c2C(F)(F)F)o1 [IB-18, 2-(3-(2-chloro-6-fluorophenyl)-5-(1-(2-chlorophenyl)-5-(trifluoromethyl)-1H-pyrazol-4-yl)isoxazol-4-yl)-5-methyl-1,3,4-oxadiazole] | 1000 to 10000 nM | –
22 | N#Cc1c(-c2c(F)cccc2Cl)noc1-c1cnn(-c2cccc(Cl)c2)c1C(F)(F)F [Example 49, 3-(2-chloro-6-fluorophenyl)-5-(1-(3-chlorophenyl)-5-(trifluoromethyl)-1H-pyrazol-4-yl)isoxazole-4-carbonitrile] | – | 100 to 1000 nM
23 | CON(C)C(=O)c1c(-c2c(F)cccc2Cl)noc1-c1cnn(-c2ccccc2Br)c1C(F)(F)F [Example B-74, 5-(1-(2-bromophenyl)-5-(trifluoromethyl)-1H-pyrazol-4-yl)-3-(2-chloro-6-fluorophenyl)-N-methoxy-N-methylisoxazole-4-carboxamide] | – | 1000 to 10000 nM
24 | COC(=O)c1c(-c2c(F)cccc2Cl)noc1-c1cnn(-c2ccccc2Cl)c1C(F)(F)F [Example B-20, methyl 3-(2-chloro-6-fluorophenyl)-5-(1-(2-chlorophenyl)-5-(trifluoromethyl)-1H-pyrazol-4-yl)isoxazole-4-carboxylate] | – | 1000 to 10000 nM
25 | CCOC(=O)c1c(-c2ccccc2F)noc1-c1cnn(-c2cccc(F)c2)c1C(F)(F)F [Example 90, ethyl 3-(2-fluorophenyl)-5-(1-(3-fluorophenyl)-5-(trifluoromethyl)-1H-pyrazol-4-yl)isoxazole-4-carboxylate] | – | 100 to 1000 nM
26 | COC(=O)c1c(-c2ccccc2F)noc1-c1cnn(-c2cccc(F)c2)c1C(F)(F)F [Example 92, methyl 3-(2-fluorophenyl)-5-(1-(3-fluorophenyl)-5-(trifluoromethyl)-1H-pyrazol-4-yl)isoxazole-4-carboxylate] | – | 100 to 1000 nM
27 | Cc1nnc(-c2c(-c3c(F)cccc3Cl)noc2-c2cnn(-c3ccccc3F)c2C(F)(F)F)o1 [Example I-11, 2-(3-(2-chloro-6-fluorophenyl)-5-(1-(2-fluorophenyl)-5-(trifluoromethyl)-1H-pyrazol-4-yl)isoxazol-4-yl)-5-methyl-1,3,4-oxadiazole] | 100 to 1000 nM | –
28 | COC(=O)c1c(-c2c(F)cccc2Cl)noc1-c1cnn(CC(F)(F)F)c1C(F)(F)F [Example 65, methyl 3-(2-chloro-6-fluorophenyl)-5-(1-(2,2,2-trifluoroethyl)-5-(trifluoromethyl)-1H-pyrazol-4-yl)isoxazole-4-carboxylate] | – | 10 to 100 nM
29 | COC(=O)c1c(-c2cccc(F)c2)noc1-c1cnn(-c2cccc(F)c2)c1C(F)(F)F [Example 106, methyl 3-(3-fluorophenyl)-5-(1-(3-fluorophenyl)-5-(trifluoromethyl)-1H-pyrazol-4-yl)isoxazole-4-carboxylate] | – | 1000 to 10000 nM
30 | COC(=O)c1c(-c2c(F)cccc2Cl)noc1-c1cnn(-c2ccc(C(C)(C)C)cc2)c1C(F)(F)F [Example 81, methyl 5-(1-(4-tert-butylphenyl)-5-(trifluoromethyl)-1H-pyrazol-4-yl)-3-(2-chloro-6-fluorophenyl)isoxazole-4-carboxylate] | – | 1000 to 10000 nM
31 | CCOC(=O)c1c(-c2onc(-c3c(F)cccc3Cl)c2C(=O)OC)cnn1-c1cccc(C#N)c1 [Example 13, methyl 3-(2-chloro-6-fluorophenyl)-5-(1-(3-cyanophenyl)-5-(ethoxycarbonyl)-1H-pyrazol-4-yl)isoxazole-4-carboxylate] | – | 100 to 1000 nM
32 | CCOC(=O)c1c(-c2c(F)cccc2Cl)noc1-c1cnn(Cc2ccccc2F)c1C(F)(F)F [Example B-80, ethyl 3-(2-chloro-6-fluorophenyl)-5-(1-(2-fluorobenzyl)-5-(trifluoromethyl)-1H-pyrazol-4-yl)isoxazole-4-carboxylate] | – | 1000 to 10000 nM
